The source of these data is patent publication US20140158116A1, “INHIBITING TRPA1 FOR THE TREATMENT OF ASTHMA” (Cubist Pharmaceuticals, Inc., priority 2012, published 2014).

Data set [1] concerns CFA-induced cold allodynia. Nature of the data set: Complete Freund's Adjuvant (CFA) cold allodynia rodent pain model. It is filed as in vivo. Particulars: 150 mg/kg; vehicle 19.8. The procedure:
The compound of Formula (Ia) is also active in rodent models of pain in vivo induced by cold allodynia following chronic Complete Freund's Adjuvant-induced inflammation, as described in Example 6. […] The compound of Formula (Ia), the comparator compound of Formula (II) and ketoprofen were tested by the CFA-induced pain test method reported in del Camino et al., J. Neurosci., 30(45):15165-15174, incorporated herein by reference in its entirety. Briefly, the hind paw was sensitized to cold temperature (allodynic), by administering 0.1 mL of Complete Freund's Adjuvant (CFA) to the left hind paw. 2-3 days later, the time taken for the animal to lift its CFA-injected paw was recorded compared to its un-injected normal right hind paw. […] To avoid tissue damage the maximum cut-off time was 5 minutes. Animals that were allodynic (average PWL to the first three pain behaviors <150 seconds for the CFA-injected hind paw: ˜≧50% difference between the normal and CFA-injected paw) were included in the study and subsequently randomized across treatment groups. The following day, the animals were dosed under blinded conditions. Following the 1-2 hour pre-treatment time, the post-dose PWL readings were again taken. The efficacy of the drug treatment was assessed by comparing the PWL in the drug treatment animals to those animals that received the vehicle.

Data set [2] has as its system formalin-induced pain behavior. Kind of data set: Formalin-induced pain behavior in vivo rodent model. Also on record: species or system rat. Particulars: for # of Flinches: Table 3c, vehicle 120. The source says: The data shown in Tables 3a, 3b, and 3c and FIG. 2 were obtained by administering a pharmaceutical composition comprising the compound of Formula (Ia) to rodents in the formalin-induced pain duration at various doses according to Example 5. Specifically, the data in Tables 3a, 3b, and 3c and FIG. 2 were obtained by intraperitoneal (i.p.) administration of compositions containing different concentrations of the compound of Formula (Ia), a comparator composition containing recited amounts of the comparator compound (e.g., 150 mg/kg of the comparator compound of Formula (II) in Table 3a) and a control composition containing the vehicle (e.g., without the compound of Formula (Ia) or a comparator compound).
The compound of Formula (Ia) and the comparator compounds of Formula (II) and Formula (III) were tested in the formalin-induced pain test reported by Dubuisson et al., Pain 1977 December; 4(2):161-74 (incorporated herein by reference in its entirety). Dubuisson et al. (1977) describe a method for assessing pain and analgesia in rats and cats. Briefly, dilute formalin (50 μL of 3% formalin) is injected into the plantar surface of the hind paw. […] The individual responsible for counting the pain behaviors in a particular study is blinded to the treatment groups.
Rats were treated with the HCl salt of Compound (Ia) at various doses (3, 10, 30, and 50 mg/kg, IP) or with the vehicle (IP).

The test system of data set [3] is serum biomarkers of hepatotoxicity (ALT, AST, ALP, GGT). Kind of data set: Hepatotoxicity serum biomarker study in dogs, oral dose. The format is in vivo, dog. Particulars: for ALT level elevation: single PO dose of 50 mg/kg. As for the experimental part:
The compound of Formula (Ia) was orally dosed to […] at dose levels of 5, 15 or 50 mg/kg using 30% Sulfobutylether β-cyclodextrin as the vehicle for assessment of safety as measured via serum chemistry biomarkers of hepatotoxicity or bile duct injury FIG. 5A, showing measurements of alanine aminotranferease [ALT], aspartate aminotranferease [AST], alkaline phosphatase [ALP] and gamma-glutamyl transferase [GGT] in the dogs at each dose level (each bar represents a measurement from 1 dog in the study). […] For example, the ALT levels were elevated up to about 60-fold in male dogs and up to about 130-fold in female beagle dogs following a single PO dose of 50 mg/kg.

The nature of data set [4]: Oral bioavailability pharmacokinetic study. The format is in vivo. Particulars: rat, plasma, PO versus IV. As for the experimental part: The potency and pharmacokinetic (PK) properties of (a) the compound of Formula (Ia); and (b) comparator compound of Formula (III) were evaluated. Bioavailability was measured as well. A pharmacokinetic study was performed to obtain a plasma drug concentration vs time plot for the drug after both intravenous (IV) and oral (PO) administration. The absolute bioavailability is the dose-corrected area under curve (AUC) non-intravenous divided by AUC intravenous. The formula for calculating F for a drug administered by the oral route (PO) is given below.
The bioavailability was calculated using the equation shown below:
% F=AUC PO×Dose IV/AUC IV×Dose PO

The target in the next data set is dTRPA1 (Canis lupus familiaris, UniProt A0A8I3Q1Q7). Kind of data set: Whole-cell patch clamp block of inward current through dTRPA1. Particulars: class symbol; read-out: Potency (IC50) Dog. The format is cell-based, Dog. As for the experimental part: (§1) Data for TRPA1 inhibition and the selectivity of TRPA1 inhibition was obtained by this method for the compound of Formula (Ia) and included in Table 1 and Table 2. All currents were recorded in whole-cell configuration using EPC-9 and EPC-10 amplifiers and Patchmaster software (HEKA). […] The standard pipette solution consisted of 140 mM CsAsp, 10 mM EGTA, 10 mM HEPES, 2.27 mM MgCl2, 1.91 mM CaCl2, 4 mM MgATP, and 0.1-0.3 mM Na2GTP, with pH adjusted to 7.2 with CsOH. In addition, a solution containing 145 mM CsCl, 10 mM HEPES, 10 mM EGTA and 1 mM MgCl2 (pH 7.2 adjusted with CsOH) can be used. The standard bath solution contained 150 mM NaCl, 10 mM HEPES, 10 mM glucose, 4.5 mM KCl, 1 mM EGTA, 3 mM MgCl2, with pH adjusted to 7.4 with NaOH. In some instances, 2 mM CaCl2 was added in place of EGTA and the concentration of MgCl2 was reduced to 1 mM.
(§2) Data were collected either by continuous recordings at −60 mV or by applying voltage ramps from a holding potential of 0 mV every 4 s. Continuous recordings were collected at 400 Hz and digitally filtered off-line at 10 Hz for presentation. Voltage ramps were applied from −100 mV to 100 mV over the course of 400 ms, and data were collected at 10 kHz and filtered at 2.9 kHz. Inward and outward currents were analyzed from the ramps at −80 and 80 mV, respectively. Liquid junction potential correction was not used.
(§3) Solutions were switched using a gravity-fed continuous focal perfusion system. To achieve rapid temperature changes, two temperature control and perfusion systems were employed simultaneously. For temperatures ≧22° C., a Warner Instruments bipolar temperature controller (TC-344B) and inline heater (SHM-8) were used. […] Temperatures were confirmed using a thermistor (Warner Instruments, TA-29), with temperatures at the recorded cell estimated to be within +/−2° C. of those reported.
(§4) IC50 of compounds was estimated by testing each compound at 5 micromolar and 500 nanomolar. […] IC50 for compounds between 500 nanomolar and 5 micromolar was similarly estimated. […]

Data set [5] addresses T1, hTRPA1 (Homo sapiens, UniProt O75762). Kind of data set: Whole-cell patch clamp block of inward current through hTRPA1. It is filed as cell-based. The procedure: as §1, §2, §3
IC50 of compounds was estimated by testing each compound at 5 micromolar and 500 nanomolar. […] IC50 for compounds between 500 nanomolar and 5 micromolar was similarly estimated. Compounds blocking 50% or more at 500 nanomolar are retested at multiple concentrations, and the % block at each is fitted by standard equations to determine IC50 accurately using a 5-6 point concentration/response experiment.

The target of a further data set is rTRPA1 (Rattus norvegicus, UniProt Q6RI86). Kind of data set: Whole-cell patch clamp block of inward current through rTRPA1. It is filed as cell-based. The following applies: class symbol; read-out: Potency (IC50) Rat. As for the experimental part:
as §1, §2, §3, §4

A short description of data set [6]: 7-day repeat dose i.p. screening toxicity study in rats. The format is in vivo, rat. The following applies: rats; 50 mg/kg/day i.p. for 7 consecutive days. The procedure: The compound of Formula (Ia) was evaluated in a 7-day repeat dose screening toxicity study in female rats. In order to maximize systemic exposure, rats were administered compound of Formula (Ia) i.p. at 50 mg/kg/day for 7 consecutive days, to obtain the results shown in FIG. 6. Clinical chemistry parameters were evaluated on Days 3 and 8. Histopathology was performed on select organs including the liver, kidney, spleen, and lung.

The nature of data set [7]: Human plasma protein binding by equilibrium dialysis. The format is in vitro ADME. Particulars: percentage bound. The procedure:
The amount of compound in buffer (free fraction) and the amount of compound associated with the plasma fraction is determined by equilibrium dialysis; the amount of compound bound is expressed as a percentage. (Banker et al., Journal of Pharmaceutical Sciences (2003) 92(5): 967-74.)
Background: In equilibrium dialysis only unbound substance equilibrates across the membrane.

Data set [8] has as its target T1, hTRPA1. Kind of data set: hTrpA1 IC50 measured in 1% RSA (rat serum albumin). It is filed as cell-based.
The mark [9] stands for this setting: hTRPA1, Human, current activation 10 micromolar AITC, whole cell patch, read-out: IC50 Inward current.

Where two headings read alike, the source gives them in different places. A value given as a limit tells only on which side of the number the result lay.

T1 sequence (O75762 whole entry): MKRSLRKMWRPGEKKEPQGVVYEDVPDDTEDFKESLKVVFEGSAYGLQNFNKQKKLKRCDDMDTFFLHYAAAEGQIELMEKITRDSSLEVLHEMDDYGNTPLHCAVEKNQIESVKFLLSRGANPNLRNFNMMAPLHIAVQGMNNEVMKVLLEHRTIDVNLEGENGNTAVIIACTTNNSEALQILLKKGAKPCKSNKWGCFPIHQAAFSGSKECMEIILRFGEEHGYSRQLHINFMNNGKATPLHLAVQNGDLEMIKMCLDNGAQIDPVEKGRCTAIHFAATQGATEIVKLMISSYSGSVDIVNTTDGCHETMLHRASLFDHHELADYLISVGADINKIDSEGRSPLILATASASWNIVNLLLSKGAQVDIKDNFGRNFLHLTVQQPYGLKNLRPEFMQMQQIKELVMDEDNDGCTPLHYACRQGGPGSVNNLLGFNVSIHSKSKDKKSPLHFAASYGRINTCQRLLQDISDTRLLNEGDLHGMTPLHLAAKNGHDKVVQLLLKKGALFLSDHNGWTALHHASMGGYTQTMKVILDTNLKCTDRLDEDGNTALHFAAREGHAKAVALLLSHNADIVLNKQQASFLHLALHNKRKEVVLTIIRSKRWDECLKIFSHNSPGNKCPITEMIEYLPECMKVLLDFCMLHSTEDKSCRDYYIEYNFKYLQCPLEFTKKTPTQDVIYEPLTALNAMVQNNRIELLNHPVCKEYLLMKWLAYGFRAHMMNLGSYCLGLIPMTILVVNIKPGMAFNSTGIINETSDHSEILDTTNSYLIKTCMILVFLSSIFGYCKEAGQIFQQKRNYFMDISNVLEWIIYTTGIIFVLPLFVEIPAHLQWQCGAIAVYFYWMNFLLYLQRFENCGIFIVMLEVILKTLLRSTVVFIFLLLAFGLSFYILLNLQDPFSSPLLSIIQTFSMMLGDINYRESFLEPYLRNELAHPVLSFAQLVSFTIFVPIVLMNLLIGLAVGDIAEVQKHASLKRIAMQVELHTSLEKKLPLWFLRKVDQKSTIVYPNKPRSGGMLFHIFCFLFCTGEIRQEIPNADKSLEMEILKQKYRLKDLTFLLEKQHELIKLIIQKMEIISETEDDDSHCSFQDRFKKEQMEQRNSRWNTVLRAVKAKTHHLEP
dTRPA1, sequence (A0A8I3Q1Q7 1-1118): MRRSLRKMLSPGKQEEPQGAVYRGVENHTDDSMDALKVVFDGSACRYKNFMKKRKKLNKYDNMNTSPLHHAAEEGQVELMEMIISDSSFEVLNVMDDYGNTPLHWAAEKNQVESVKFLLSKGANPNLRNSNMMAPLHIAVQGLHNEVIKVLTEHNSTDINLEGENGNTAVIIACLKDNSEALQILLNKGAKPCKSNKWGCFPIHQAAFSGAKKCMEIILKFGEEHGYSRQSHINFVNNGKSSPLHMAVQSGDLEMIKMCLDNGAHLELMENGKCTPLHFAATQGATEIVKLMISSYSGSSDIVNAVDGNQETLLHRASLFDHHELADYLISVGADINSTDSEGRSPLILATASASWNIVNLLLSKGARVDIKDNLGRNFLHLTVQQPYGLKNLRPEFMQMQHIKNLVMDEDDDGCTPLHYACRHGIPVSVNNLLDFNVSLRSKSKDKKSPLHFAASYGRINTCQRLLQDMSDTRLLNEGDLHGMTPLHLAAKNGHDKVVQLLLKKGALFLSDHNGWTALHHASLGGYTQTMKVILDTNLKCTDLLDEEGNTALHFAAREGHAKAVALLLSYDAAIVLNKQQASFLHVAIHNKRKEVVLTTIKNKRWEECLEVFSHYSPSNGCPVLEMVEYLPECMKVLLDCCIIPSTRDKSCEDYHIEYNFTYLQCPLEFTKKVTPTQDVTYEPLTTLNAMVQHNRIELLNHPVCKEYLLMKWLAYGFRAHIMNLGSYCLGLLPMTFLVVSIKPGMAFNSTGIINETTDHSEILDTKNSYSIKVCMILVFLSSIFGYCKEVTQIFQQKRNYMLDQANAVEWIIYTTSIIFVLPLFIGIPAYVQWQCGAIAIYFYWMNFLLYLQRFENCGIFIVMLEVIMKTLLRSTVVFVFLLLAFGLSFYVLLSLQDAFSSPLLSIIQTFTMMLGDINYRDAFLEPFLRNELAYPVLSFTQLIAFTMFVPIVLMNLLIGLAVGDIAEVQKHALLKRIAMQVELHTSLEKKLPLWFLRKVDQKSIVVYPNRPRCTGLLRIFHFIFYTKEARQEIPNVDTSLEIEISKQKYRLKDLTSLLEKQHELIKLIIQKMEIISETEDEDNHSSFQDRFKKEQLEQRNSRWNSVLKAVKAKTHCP
rTRPA1, sequence (Q6RI86 whole entry): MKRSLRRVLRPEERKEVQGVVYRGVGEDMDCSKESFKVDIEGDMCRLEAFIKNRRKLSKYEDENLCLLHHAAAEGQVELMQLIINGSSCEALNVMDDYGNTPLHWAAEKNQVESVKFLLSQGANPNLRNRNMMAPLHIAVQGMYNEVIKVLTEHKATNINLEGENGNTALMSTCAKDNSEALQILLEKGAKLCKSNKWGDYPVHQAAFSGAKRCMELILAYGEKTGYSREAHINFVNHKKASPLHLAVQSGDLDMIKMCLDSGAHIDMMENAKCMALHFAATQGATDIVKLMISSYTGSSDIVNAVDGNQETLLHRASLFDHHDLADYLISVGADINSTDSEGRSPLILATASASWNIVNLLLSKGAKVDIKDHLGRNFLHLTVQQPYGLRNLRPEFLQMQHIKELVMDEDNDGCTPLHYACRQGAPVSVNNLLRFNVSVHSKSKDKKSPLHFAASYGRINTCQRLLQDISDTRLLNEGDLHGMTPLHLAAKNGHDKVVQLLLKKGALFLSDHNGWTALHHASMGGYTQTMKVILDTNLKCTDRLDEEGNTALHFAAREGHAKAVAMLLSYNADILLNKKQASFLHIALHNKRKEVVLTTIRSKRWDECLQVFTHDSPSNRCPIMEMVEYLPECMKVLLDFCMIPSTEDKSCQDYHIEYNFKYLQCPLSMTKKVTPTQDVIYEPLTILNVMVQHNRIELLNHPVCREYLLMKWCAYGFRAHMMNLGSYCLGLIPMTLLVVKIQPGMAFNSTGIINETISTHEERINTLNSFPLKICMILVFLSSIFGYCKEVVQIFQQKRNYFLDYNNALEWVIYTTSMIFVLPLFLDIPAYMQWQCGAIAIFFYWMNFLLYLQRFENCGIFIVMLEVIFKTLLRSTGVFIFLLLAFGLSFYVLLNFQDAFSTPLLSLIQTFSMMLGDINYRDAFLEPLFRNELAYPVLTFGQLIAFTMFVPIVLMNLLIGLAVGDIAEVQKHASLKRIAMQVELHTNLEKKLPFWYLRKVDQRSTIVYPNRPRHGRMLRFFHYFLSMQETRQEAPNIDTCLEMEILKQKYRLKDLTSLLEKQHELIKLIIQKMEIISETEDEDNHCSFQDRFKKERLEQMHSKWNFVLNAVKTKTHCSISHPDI

For `CC(C)c1ccc(NC(=O)Cn2cnc3c2c(=O)n(C)c(=O)n3C)cc1` [Formula (II)], in [1], the “Change in Paw Withdrawal Latency” value turned out to be 142.2. Also, the “# of Flinches” value was found to be 88 in data set [2] (30 mg/kg), 62 in [2] (100 mg/kg) and 43 in data set [2] (300 mg/kg). The “Duration of Pain Behavior” value in data set [2] (150 mg/kg, Table 3a, vehicle 88.6) came to 40.0 s.

As to `C[C@H]1CCCN1c1ccc(-c2csc(NC(=O)Cn3cnc4c3c(=O)n(C)c(=O)n4C)n2)cc1F` [Formula (III), reference compound], the “effect on serum biomarkers of hepatotoxicity” value was “did elevate serum biomarkers of hepatotoxicity” in [3] (dogs, 50 mg/kg PO) and “did elevate serum biomarkers of hepatotoxicity as compared to Formula (Ia)” in data set [6]. The ALT level elevation entry in data set [3] (female beagle dogs) was “up to 130 fold”; in [3] (male dogs), “up to 60 fold”. Further, the bioavailability (in general, the share of a dose that reaches the circulation, judged against a reference dose that is usually intravenous) in data set [4] (oral, fed rats, read-out: Bioavailability (Rat) Fed) fell in the range of 1 to 25%; in data set [4] (po, fasted rats, read-out: Bioavailability (Rat) Fasted), 25 to 50%; in data set [4] (po, fed rats, read-out: Bioavailability (Rat) Fed) it was 1 to 25%. In addition, the IC50 (in general, the concentration that gives 50% inhibition) is less than 25 nM at dTRPA1; less than 25 nM on hTRPA1 [5] (setting [9]); less than 25 nM at hTRPA1 [5] (hTRPA1, class symbol, read-out: Potency (IC50) Human); 50 to 100 nM on rTRPA1. Moreover, the fraction unbound (in general, free concentration divided by total concentration) in data set [7] is less than 0.01. For the same compound, the “Duration of Pain Behavior” value in [2] (50 mg/kg, Table 3b, vehicle 77.2) came to 44.3 s.

On to `C[C@@H]1CCCN1c1ncc(-c2cccc(NC(=O)Cn3cnc4c3c(=O)n(C)c(=O)n4C)n2)cn1` [Formula (Ib)], for which the IC50 at hTRPA1 [5] (setting [9]) is 77 nM; on hTRPA1 [8], 15200 nM.

Turning to `NCC1(CC(=O)O)CCCCC1` [Gabapentin], the “# of Flinches” value in [2] (reference, dose not given) is on record as 75.
